Target: orexin-2 receptor (OX2R) (Homo sapiens (Human), UniProt O43614)
Assay: radioligand binding assay, OX2R
Conditions: membranes prepared from CHO cells expressing the orexin-2 (OX2) receptor
Description: The utility of the compounds in accordance with the present invention as orexin receptor OX1R and/or OX2R antagonists may be readily determined without undue experimentation by methodology well known in the art, including the “FLIPR Ca^2+ Flux Assay” (Okumura et al., Biochem. Biophys. Res. Comm. 280:976-981, 2001). In a typical experiment the OX1 and OX2 receptor antagonistic activity of the compounds of the present invention was determined in accordance with the following experimental method. For intracellular calcium measurements, Chinese hamster ovary (CHO) cells expressing the rat OX1 receptor or the human OX2 receptor, are grown in Iscove's modified DMEM containing 2 mM L-glutamine, […], 1% hypoxanthine-thymidine supplement, 100 U/ml penicillin, 100 ug/ml streptomycin and 10% heat-inactivated fetal calf serum (FCS). The cells are seeded at 20,000 cells/well into Becton-Dickinson black 384-well clear bottom sterile plates coated with poly-D-lysine. All reagents were from GIBCO-Invitrogen Corp. The seeded plates are incubated overnight at 37° C. and 5% CO2. Ala-6,12 human orexin-A as the agonist is prepared as a 1 mM stock solution in 1% bovine serum albumin (BSA) and diluted in assay buffer (HBSS containing 20 mM HEPES, 0.1% BSA and 2.5 mM probenecid, pH7.4) for use in the assay at a final concentration of 70 pM. Test compounds are prepared as 10 mM stock solution in DMSO, then diluted in 384-well plates, first in DMSO, then assay buffer. On the day of the assay, cells are washed 3 times with 100 ul assay buffer and then incubated for 60 min (37° C., 5% CO2) in 60 ul assay buffer containing 1 uM Fluo-4AM ester, 0.02% pluronic acid, and 1% BSA. The dye loading solution is then aspirated and cells are washed 3 times with 100 ul assay buffer. 30 ul of that same buffer is left in each well. Within the Fluorescent Imaging Plate Reader (FLIPR, Molecular Devices), test compounds are added to the plate in a volume of 25 ul, incubated for 5 min and finally 25 ul of agonist is added. Fluorescence is measured for each well at 1 second intervals for 5 minutes and the height of each fluorescence peak is compared to the height of the fluorescence peak induced by 70 pM Ala-6,12 orexin-A with buffer in place of antagonist. For each antagonist, IC50 value (the concentration of compound needed to inhibit 50% of the agonist response) is determined. Alternatively, compound potency can be assessed by a radioligand binding assay (described in Bergman et. al. Bioorg. Med. Chem. Lett. 2008, 18, 1425-1430) in which the inhibition constant (Ki) is determined in membranes prepared from CHO cells expressing either the orexin-1 (OX1) or orexin-2 (OX2) receptor. The intrinsic orexin receptor antagonist activity of a compound which may be used in the present invention may be determined by these assays.

Chain of orexin-2 receptor (OX2R) (O43614 whole entry): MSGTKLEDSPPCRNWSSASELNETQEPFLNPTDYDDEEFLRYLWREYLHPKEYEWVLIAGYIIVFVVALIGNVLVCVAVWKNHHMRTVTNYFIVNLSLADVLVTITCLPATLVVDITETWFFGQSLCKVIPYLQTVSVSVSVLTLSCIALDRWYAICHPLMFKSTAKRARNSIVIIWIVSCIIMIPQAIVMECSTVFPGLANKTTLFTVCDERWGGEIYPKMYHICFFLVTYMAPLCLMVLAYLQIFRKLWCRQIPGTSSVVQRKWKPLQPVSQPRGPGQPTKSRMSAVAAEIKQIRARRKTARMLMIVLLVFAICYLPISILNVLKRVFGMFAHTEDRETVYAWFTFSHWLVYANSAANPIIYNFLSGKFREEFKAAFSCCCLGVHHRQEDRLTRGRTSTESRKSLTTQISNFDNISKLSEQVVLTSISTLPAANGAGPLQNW

| Compound | Ki [nM] |
| --- | --- |
| CC1CCCC(COc2ccc(F)cn2)CN1C(=O)c1ccccc1-n1nccn1 (stereo not drawn) [2-11, 6-{[(5-fluoropyridin-2-yl)oxy]methyl}-2-methyl-1-[2-(2H-1,2,3-triazol-2-yl)benzoyl]azepane] | 28 |
| Cc1ccc(-n2nccn2)c(C(=O)N2CC(COc3ccc(F)cn3)CCCC2C)c1 (stereo not drawn) [2-10, 6-{[(5-fluoropyridin-2-yl)oxy]methyl}-2-methyl-1-[5-methyl-2-(2H-1,2,3-triazol-2-yl)benzoyl]azepane] | 9.7 |
| Cc1cc(OCC2CCCC(C)N(C(=O)c3ccccc3-n3nccn3)C2)ccc1F (stereo not drawn) [2-9, 6-[(4-fluoro-3-methylphenoxy)methyl]-2-methyl-1-[2-(2H-1,2,3-triazol-2-yl)benzoyl]azepane] | 10 |
| Cc1ccc(-n2nccn2)c(C(=O)N2CC(COc3ccc(F)c(C)c3)CCCC2C)c1 (stereo not drawn) [2-8, 6-[(4-fluoro-3-methylphenoxy)methyl]-2-methyl-1-[5-methyl-2-(2H-1,2,3-triazol-2-yl)benzoyl]azepane] | 3.3 |
| Cc1ccc(-n2nccn2)c(C(=O)N2CCCCC(COc3ccc(F)c(C)c3)C2)c1 (stereo not drawn) [1-8, 3-[(4-Fluoro-3-methylphenoxy)methyl]-1-[5-methyl-2-(2H-1,2,3-triazol-2-yl)benzoyl]azepane] | 7.9 |

Continued, values first:

| Ki [nM] | Compound |
| --- | --- |
| 13 | Cc1ccc(-c2ncco2)c(C(=O)N2CC(COc3ccc(F)cn3)CCCC2C)c1 (stereo not drawn) [3-4, 6-{[(5-fluoropyridin-2-yl)oxy]methyl}-2-methyl-1-[5-methyl-2-(1,3-oxazol-2-yl)benzoyl]azepane] |
| 4.2 | Cc1ccc(-c2nccs2)c(C(=O)N2CC(COc3ccc(F)c(C)c3)CCCC2C)c1 (stereo not drawn) [3-2, 6-[(4-fluoro-3-methylphenoxy)methyl]-2-methyl-1-[5-methyl-2-(1,3-thiazol-2-yl)benzoyl]azepane] |
| 3.8 | Cc1ccc(-c2nccs2)c(C(=O)N2CC(COc3ccc(F)cn3)CCCC2C)c1 (stereo not drawn) [3-5, 6-{[(5-fluoropyridin-2-yl)oxy]methyl}-2-methyl-1-[5-methyl-2-(1,3-thiazol-2-yl)benzoyl]azepane] |
| 11 | Cc1cc(OCC2COCC(C)N(C(=O)c3ccccc3-n3nccn3)C2)ccc1F (stereo not drawn) [4-9, 6-[(4-fluoro-3-methylphenoxy)methyl]-3-methyl-4-[2-(2H-1,2,3-triazol-2-yl)benzoyl]-1,4-oxazepane] |
| 14 | Cc1ccc(-c2ncccn2)c(C(=O)N2CC(COc3ccc(F)cn3)CCCC2C)c1 (stereo not drawn) [3-6, 6-{[(5-fluoropyridin-2-yl)oxy]methyl}-2-methyl-1-(5-methyl-2-pyrimidin-2-ylbenzoyl)azepane] |
| 10 | Cc1ccc(-c2ncccn2)c(C(=O)N2CC(COc3ccc(F)c(C)c3)CCCC2C)c1 (stereo not drawn) [3-3, 6-[(4-fluoro-3-methylphenoxy)methyl]-2-methyl-1-(5-methyl-2-pyrimidin-2-ylbenzoyl)azepane] |
| 8.7 | Cc1ccc(-n2nccn2)c(C(=O)N2CC(COc3ccc(F)c(C)c3)COCC2C)c1 (stereo not drawn) [4-8, 6-[(4-fluoro-3-methylphenoxy)methyl]-3-methyl-4-[5-methyl-2-(2H-1,2,3-triazol-2-yl)benzoyl]-1,4-oxazepane] |

Source: US8623863B2, “Disubstituted azepan orexin receptor antagonists” (Merck Sharp & Dohme Corp., priority 2008, dated 2014)
